The conditions of data set [1]: cited from earlier work.
Data set [2] concerns the target T1, aryl hydrocarbon receptor (AHR) (Homo sapiens, UniProt P35869).
T1 sequence (P35869 11-848): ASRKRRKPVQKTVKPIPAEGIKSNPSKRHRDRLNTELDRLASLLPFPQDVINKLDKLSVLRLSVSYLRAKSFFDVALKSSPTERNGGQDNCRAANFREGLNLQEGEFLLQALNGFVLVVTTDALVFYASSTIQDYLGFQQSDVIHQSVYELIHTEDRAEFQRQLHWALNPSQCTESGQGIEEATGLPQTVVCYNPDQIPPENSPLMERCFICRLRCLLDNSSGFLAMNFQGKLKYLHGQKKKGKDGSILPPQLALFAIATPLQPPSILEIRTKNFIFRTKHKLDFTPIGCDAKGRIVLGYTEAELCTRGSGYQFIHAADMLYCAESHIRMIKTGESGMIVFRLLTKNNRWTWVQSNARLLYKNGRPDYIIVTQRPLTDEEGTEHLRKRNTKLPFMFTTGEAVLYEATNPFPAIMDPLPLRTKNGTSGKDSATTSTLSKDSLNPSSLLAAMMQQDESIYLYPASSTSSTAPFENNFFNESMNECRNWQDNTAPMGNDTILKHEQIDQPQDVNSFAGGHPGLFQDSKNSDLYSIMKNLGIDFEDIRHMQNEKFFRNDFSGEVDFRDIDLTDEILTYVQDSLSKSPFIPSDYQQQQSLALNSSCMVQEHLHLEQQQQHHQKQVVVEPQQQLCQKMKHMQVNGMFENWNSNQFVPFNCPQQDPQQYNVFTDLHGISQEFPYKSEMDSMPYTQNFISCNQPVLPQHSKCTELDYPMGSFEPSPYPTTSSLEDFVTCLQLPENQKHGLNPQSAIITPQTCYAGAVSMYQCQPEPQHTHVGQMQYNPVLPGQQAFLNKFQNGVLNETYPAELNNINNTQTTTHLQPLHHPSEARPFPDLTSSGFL
As to the kind of experiment: XRE-driven luciferase reporter assay, human HepG2. The following applies: for EC50: XRE luciferase EC50, Human HepG2, least square curve fitting, >10,000 = does not reach 50% of Emax of ITE at 10 μM (highest concentration tested).
Description: The Human HepG2 cell line is a human liver cancer cell line, and provide a relevant in vitro AHR activity model. These Hep2G cells have been modified to stably express an AHR-responsive (XRE) firefly luciferase reporter gene to give Hep2G-XRE cells. The expression of luciferase should primarily reflect AHR-dependent transcription controlled by XRE.
Transfected cells were treated with AhR agonist (10^−5-10^−12) for 4.5 h in full medium. Cells were lysed and luciferase was activated using the Luciferase Assay System (Promega). Luminescence signals were measured with a FluroStar Omega microplate reader. Luminescence signals of compound treated groups were normalized to vehicle (DMSO) treated control and plotted as concentration dependent fold changes.

The target in data set [3] is T2, aryl hydrocarbon receptor (AHR) (Mus musculus, UniProt P30561).
T2 construct: Transfection was performed with 150 ng XRE-luciferase plasmid (Promega); endogenous in cells; host or cells: Hepa-1c1c7 (mouse hepatoma cell line)
As to the kind of experiment: XRE-driven luciferase reporter assay, mouse Hepa1c1c7. Type of data set: cell-based.
Description: Human HepG2 or mouse Hepa-1c1c7 cells were seeded in 96 well opaque plates at 75,000 cells per well in full medium (DMEM+10% FBS) for 24 hours. Transfection was performed with 150 ng XRE-luciferase plasmid (Promega) with 4:1 Fugene to DNA ratio for 18 hours in Opti-MEM. Transfected cells were treated with AhR agonist (10^−5-10^−12) for 4.5 h in full medium. Cells were lysed and luciferase was activated using the Luciferase Assay System (Promega). Luminescence signals were measured with a FluroStar Omega microplate reader. Luminescence signals of compound treated groups were normalized to vehicle (DMSO) treated control and plotted as concentration dependent fold changes.

In data set [4] the test system is AHR-dependent transcription of the CYP1A1 gene. Description: CYP1A1 induction in mouse macrophages. Type of data set: cell-based. As for the experimental part:
(§1) Mouse macrophages were also used to test AHR-dependent transcription of the CYP1A1 gene in vivo. Finally, the activity of exemplary compounds of Formula (I) described herein was tested in the human […] cell line U937. The U937 cell line is derived from a patient with diffuse histiocytic lymphoma. Tables 2-4 summarize structure-activity relationship data collected for exemplary, non-limiting compounds of Formula (I) described herein.

In data set [5] the target is T3, AhR (Homo sapiens, UniProt P35869).
T3 construct: endogenous in cells; host or cells: HepG2 (human liver cancer cell line)
T3 sequence (P35869 11-848): T1 sequence (P35869 11-848)
Description: AhR nuclear translocation assay, human HepG2. It counts as cell-based. The note with it: human HepG2, 10 μM, 90 minutes. On the procedure: (§2) Mouse Hepa-1c1c7 or human HepG2 cells were seeded in 8 well chamber slides followed by 24 hours incubation in tryptophan deficient media (HBSS with Ca^2+ and Mg^2+, 10% heat inactivated FBS, 1× non-essential amino acids, 1× sodium pyruvate, 4.5 g/L glucose). Cells were treated with vehicle control (DMSO) or 10 μM ITE, compound 108, or compound 109 for 90 minutes in tryptophan deficient media. Following treatment, cells were fixed in 4% formaldehyde and processed according to standard immunofluorescence staining protocol. Primary anti-AhR antibody was applied at 1:100 dilution (Enzo, BML-SA210) and Alexa488 conjugated secondary antibody was applied at 1:500 dilution (Cell Signaling, 4412S). Actin was stained using Alexa 568 conjugated Phalloidin (Fisher). Samples were mounted in anti-fade mounting medium supplemented with DAPI for nuclear staining and imaged with confocal microscopy (Leica SP5×MP, 63× oil lens).

The conditions of data set [6]: within 8 h; cited from earlier work.
Data set [7] deals with T4, AhR (Mus musculus, UniProt P30561).
T4 construct: endogenous in cells; host or cells: Hepa-1c1c7 (mouse hepatoma cell line)
Description: AhR nuclear translocation assay, mouse Hepa-1c1c7. It counts as cell-based. The following applies: mouse Hepa-1c1c7, 10 μM, 90 minutes. As for the experimental part: as §2

A short description of data set [8]: Liver microsomal stability (LCMS/MS). It counts as in vitro ADME. The following applies: in the presence of liver microsomes. On the technique in general: Liver microsomes are a subcellular fraction often used to study metabolism.
Data set [9] is described as follows: Plasma stability (LCMS/MS). Type of data set: in vitro ADME. The note with it: incubated in plasma.
In data set [10] the test system is AHR-dependent transcription of the CYP1A1 gene. Description: CYP1A1 induction in human U937 cells. It counts as cell-based. The following applies: Human U937, 1 μM. On the procedure: as §1
A short description of data set [11]: LC-MS/MS analysis of plasma after oral dosing of mice. It counts as in vivo, mouse. The following applies: LC-MS/MS of plasma samples.
Data set [12] relates to cyp1a1. Description: cyp1a1 expression by q-PCR in mouse Hepa-1c1c7 cells. It counts as cell-based. As for the experimental part: (§3) RNA was extracted using TRIzol (Invitrogen) following manufacturer's instructions and 0.1 μg of RNA was converted to cDNA using a high capacity cDNA reverse transcription kit (Invitrogen). qPCR was performed on the Applied Biosystems 7900 using TaqMan® Universal PCR Master Mix (Life Technologies) with TaqMan® (Life Technologies) primers against cyp1a1 (Mm00487218_m1), AhR (Mm00478932_m1), IL-22 (Mm01226722_g1), Foxp3 (Mm00475162_m1), IL-10 (Mm01288386_m1), TNF-a (Mm00443258_m1), IFN-r (Mm01168134_m1). The fold increase from experimental groups to control was calculated using the delta-delta CT method with 18S (Mm00446186_m1) as an internal reference gene. In vitro and in vivo activation of the AhR singling pathway was confirmed by q-PCR characterization of cyp1a1. For in vitro induction, mouse Hepa-1c1c7 were cultured to confluence in 24 well plates in full DMEM followed by 24 hours incubation in tryptophan deficient media. Cells were treated with vehicle control (DMSO), ITE, compound 108, or compound 109 (10 nM-10 μM) for 8 hours in tryptophan deficient media. At the end of treatment, cells were lysed in TRIzol for RNA isolation. To monitor in vivo induction, (0.1-1000 μg) compound 109 was given per mouse via oral gavage in 100 μl of vehicle (1% HPMC, 1% polysorbate 80). After 12 hours, liver, colon, spleen and leukocytes from blood were collected and lysed in TRIzol (Invitrogen) for q-PCR analysis.

For a further data set, the system named is DSS induced colitis. As to the kind of experiment: DSS induced colitis in mice. Type of data set: in vivo, C57BL/6 mice. The note with it: 1 μg/day PO; day 11. On the procedure:
C57BL/6 (8-10 week, male) mice were administered drinking water supplemented with 3% (wt/vol) dextran sodium sulfate (DSS; MP Biomedicals) for 7 days followed by a 13 day recovery period with unsupplemented drinking water. Compound 109 or compound 108 were suspended in vehicle (1% HPMC and 1% polysorbate 80 in water) and given daily by oral gavage (1 ug/mouse in 100 uL), starting at day 0. Control mice were administered 100 μL vehicle. Body weight and disease activity index (DAI) were recorded daily. DAI was determined by combining scores of weight loss, stool consistency, blood in stool, activity, and appearance.^1 Scores were determined as follows: change in weight (0: <1%, 1: 1-10%, 2: 10-18%, 3: 18-20%); stool consistency (0: normal, 1: loose stools, 2: diarrhea); stool blood (0: negative, 1: trace blood, 2: bloody stool, 3: gross bleeding), activity (0: normal, 1: low activity, 2: hiding, 3: no response to gentle stimuli) and appearance (0: normal, 1: rigor, 2: hunched posture). On day 7 and day 11, mice were euthanized and colon were removed for length measurement, histology, RNA isolation, and lamina propria mononuclear cell (LPMC) extraction as detailed below.
Dissected colon were cut longitudinally and rolled using the Swiss roll method with the distal side in the center.^2,3 Colons were fixed overnight in 10% neutral buffered formalin, processed for paraffin embedding and sectioned at 5 μm thickness. To visualize and quantify the inflammatory response and crypt loss, hematoxylin and eosin staining (H&E) was performed. Briefly, sections were cleared with xylene, rehydrated through alcohol gradient, stained by hematoxylin, washed by acid and ammonium alcohol, rinsed in water and exposed to Eosin followed by dehydrating through graded alcohols and cleared in xylene. All sections were mounted using Permount (Fisher Scientific) and visualized using a BX41 microscope (Olympus). For histological scoring, 3 transverse sections of Swiss roll were chosen and 9 (100×) images were captured for each section. Images were analyzed for inflammation and crypt structure and scored by a blind observer as follows: inflammation (0: rare inflammatory cells in the lamina propria; 1: increased numbers of inflammatory cells in the lamina propria; 2: confluence of inflammatory cells extending in to the submucosa; 3: transmural extension of the inflammatory infiltrate.); crypt loss (0: none; 1: basal 1/3 damaged; 2: basal 2/3 damaged; 3: only surface epithelium intact; 4: entire crypt and epithelium lost). Inflammation and crypt loss were scored separately and multiplied by a factor of 1-4 to adjust for impacted area of tissue section (1: 0-25%; 2: 25.1-50% affected; 3: 50.1-75% affected; 4: >75% affected).^1,4 To examine goblet cell number, sections were stained by a commercial periodic acid-Schiff (PAS) and Alcian blue kit (Fisher Scientific). For quantification, 3 transverse sections of Swiss roll were chosen per colon and 5 random images at 200x were taken per section in the distal region of the colon. Goblet cell number was counted per image and normalized to colon length by a blind observer using image J.^5
Colonic epithelium and lamina propria cells were isolated as previously described.^6,7 Briefly, colons were dissected and washed with HBSS to remove fecal contents. Colon were opened longitudinally and cut into 2 cm segments. […]

The test system of data set [13] is cyp1a1. As to the kind of experiment: In vivo tissue cyp1a1 induction after oral gavage (PD profile). Details: species or system mouse. The note with it: mice, oral gavage 0.1-1000 μg, 12 hours. As for the experimental part: as §3, with “After 12 hours, liver, colon, spleen and leukocytes from blood were collected and lysed in TRIzol (Invitrogen) for q-PCR analysis.” left out

Consider four compounds from US12152016B2, “Aryl hydrocarbon receptor modulators and uses thereof” (Beth Israel Deaconess Medical Center, Inc., priority 2018, dated 2024).

Entries after “also recorded” stand apart in the source; their conditions may differ.

T2 sequence (P30561 10-805 limits assumed): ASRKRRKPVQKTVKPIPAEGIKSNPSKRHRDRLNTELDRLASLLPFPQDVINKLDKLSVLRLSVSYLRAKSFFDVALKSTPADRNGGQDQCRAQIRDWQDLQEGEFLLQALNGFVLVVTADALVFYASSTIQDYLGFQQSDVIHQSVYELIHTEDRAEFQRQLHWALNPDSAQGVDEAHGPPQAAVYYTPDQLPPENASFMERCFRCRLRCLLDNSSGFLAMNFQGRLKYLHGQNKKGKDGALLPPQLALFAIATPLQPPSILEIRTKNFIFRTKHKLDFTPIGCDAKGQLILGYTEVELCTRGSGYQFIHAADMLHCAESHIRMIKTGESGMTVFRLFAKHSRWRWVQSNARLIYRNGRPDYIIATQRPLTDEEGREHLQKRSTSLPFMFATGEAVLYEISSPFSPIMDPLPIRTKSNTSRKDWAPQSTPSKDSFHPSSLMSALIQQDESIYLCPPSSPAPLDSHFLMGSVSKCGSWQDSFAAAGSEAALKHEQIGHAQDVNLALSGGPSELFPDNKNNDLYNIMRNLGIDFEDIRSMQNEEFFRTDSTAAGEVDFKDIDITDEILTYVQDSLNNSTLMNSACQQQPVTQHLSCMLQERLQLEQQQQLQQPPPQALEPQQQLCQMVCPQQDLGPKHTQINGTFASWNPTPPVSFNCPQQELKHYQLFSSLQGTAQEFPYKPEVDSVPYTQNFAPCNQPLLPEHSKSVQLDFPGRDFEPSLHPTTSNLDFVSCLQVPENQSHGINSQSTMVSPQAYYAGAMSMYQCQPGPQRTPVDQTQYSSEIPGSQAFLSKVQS
T2 sequence (P53762 whole entry partner): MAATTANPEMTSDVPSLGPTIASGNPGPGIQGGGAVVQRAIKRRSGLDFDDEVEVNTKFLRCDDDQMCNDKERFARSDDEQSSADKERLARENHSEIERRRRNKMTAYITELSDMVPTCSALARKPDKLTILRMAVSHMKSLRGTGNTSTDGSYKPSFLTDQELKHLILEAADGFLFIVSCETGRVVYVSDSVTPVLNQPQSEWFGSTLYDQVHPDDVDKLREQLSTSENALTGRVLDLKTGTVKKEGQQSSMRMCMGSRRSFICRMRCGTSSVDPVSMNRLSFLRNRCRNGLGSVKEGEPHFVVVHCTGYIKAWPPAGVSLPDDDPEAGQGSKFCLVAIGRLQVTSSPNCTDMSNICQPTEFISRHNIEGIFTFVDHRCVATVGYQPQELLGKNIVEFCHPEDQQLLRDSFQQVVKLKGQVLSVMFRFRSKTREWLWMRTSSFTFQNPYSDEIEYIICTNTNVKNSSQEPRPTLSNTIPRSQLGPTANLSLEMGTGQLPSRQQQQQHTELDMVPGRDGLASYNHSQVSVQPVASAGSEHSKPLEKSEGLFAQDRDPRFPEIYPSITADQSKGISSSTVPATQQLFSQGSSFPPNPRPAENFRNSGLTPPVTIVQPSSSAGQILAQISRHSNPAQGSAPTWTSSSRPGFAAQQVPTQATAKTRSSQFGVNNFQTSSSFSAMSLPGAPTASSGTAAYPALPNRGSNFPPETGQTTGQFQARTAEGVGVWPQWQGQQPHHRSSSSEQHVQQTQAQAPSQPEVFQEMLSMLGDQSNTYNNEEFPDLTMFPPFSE
T4 sequence (P30561 10-805 limits assumed): as the sequence (P30561 10-805 limits assumed) above
T4 sequence (P53762 whole entry partner): as the sequence (P53762 whole entry partner) above

Regarding `Clc1cc2c(cc1Cl)Oc1cc(Cl)c(Cl)cc1O2` [TCDD, 2,3,7,8-tetrachlorodibenzo-p-dioxin], the half-life in data set [1] is recorded as 2,840 days.

One may read the EC50 as the concentration that produces a half-maximal response. Read a low EC50 as higher potency in that assay. Regarding `COC(=O)c1csc(C(=O)c2c[nH]c3ccccc23)n1` [ITE, 2-(1H-indol-3-ylcarbonyl)-4-thiazolecarboxylic acid methyl ester, reference compound], the “XRE luciferase Emax (fold)” value was determined as 63 fold in data set [2] (Human HepG2, fold over vehicle) and 79 fold in [3]. Moreover, the figures for the EC50 in [2] and in [3] were 5.3 nM and 30 nM, respectively. The “CYP1A1 induction (% of ITE ± SEM)” value in [4] (50 nM), in data set [4] (5 μM) and in [10] was 100 % of ITE throughout. Also, the AhR nuclear translocation entry at AhR [5] and at AhR [7] was “localized in the nucleus; also recorded: rapid nuclear enrichment of AhR” throughout. Also, the “ITE inactivated in cell culture” value in [6] was 75%. Further, the liver microsomal stability result in data set [8] was “highly unstable”. Besides, the plasma stability entry in [9] is given as “highly unstable”.

For `COC(=O)c1cccc(C(=O)c2c[nH]c3ccccc23)n1` [Compound 10, methyl 6-(1H-indole-3-carbonyl)pyridine-2-carboxylate], the “CYP1A1 induction (% of ITE ± SEM)” value in data set [4] (50 nM) is on record as 143 ± 90 % of ITE; in data set [4] (5 μM), 88 ± 38 % of ITE. For the same compound, the liver microsomal stability entry in [8] is listed as “highly unstable”. Further, the plasma stability result in data set [9] is “highly unstable”. Besides, in data set [11], the “species found in plasma after oral dosing” value is “only revealed the presence of the much less active carboxylic acid derivative”.

With `O=C(c1cccc(C(F)(F)F)n1)c1c[nH]c2ccccc12` [Compound 109, 1H-indol-3-yl-[6-(trifluoromethyl)-2-pyridyl]methanone], the concentration giving a half-maximal response (EC50) in data set [2] stood at 2.3 nM. For the same compound, the results for the “CYP1A1 induction (% of ITE ± SEM)” value in data set [4] (50 nM) and in [4] (5 μM) were 124 ± 5 % of ITE and 90 ± 17 % of ITE, respectively. The “cyp1a1 expression relative to ITE and compound 108” value in the data set with cyp1a1 [12] (mouse Hepa-1c1c7, 10 nM) is recorded as “significantly increased cyp1a1 expression”. Further, in the data set on cyp1a1 [12] (mouse Hepa-1c1c7, 10 nM-10 μM, 8 hours), the “cyp1a1 expression (qPCR)” value was “induced AhR-dependent cyp1a1 expression; also recorded: dose dependent induction of cyp1a1 expression”. Besides, the “colon IL-22 expression, upregulation” value in the data set on DSS induced colitis is 10 fold. Moreover, in the data set on cyp1a1 [13], the “cyp1a1 induction in liver and colon tissue” value was “induced dose-dependent cyp1a1; also recorded: Robust, dose-dependent cyp1a1 induction”. Moreover, in the data set on cyp1a1 [13], the “cyp1a1 induction in spleen and blood (WBC)” value is given as “limited cyp1a1 induction was observed in spleen; also recorded: cyp1a1 regulation only at the highest administered doses”.
